Data on one compound can be found in patent US20120093947A1, “METHOD OF TREATING REACTIVE AIRWAY DISEASE” (UNITED STATES DEPARTMENT OF VETERANS AFFAIRS, priority 2009, published 2012).

The structures appear in SMILES notation.

The test concerns the target T1, EPO (Homo sapiens, UniProt P11678).
T1 construct: purchased Calbiochem
The test can be described thus: Nitration of salbutamol by EPO/H2O2/NO2−, A410. To be noted: 50 μM salbutamol, 5 mM NaNO2, 2 mM H2O2, 0.075 U/mL EPO, pH 7.0, 60 min, ΔA410 versus control. The class given is biochemical. The protocol: Spectrophotometric Measurements. Spectra are measured using an Agilent diode array spectrophotometer model 8453 (Agilent Technologies, Inc., Santa Clara, Calif.). Nitration of salbutamol is studied by measuring absorption spectra at designated time points following the start of the reaction. Samples are prepared in 100 mM phosphate buffers (pH 7.0). All buffers contained DTPA (100 μM) or are pretreated with Chelex-100 before use, and measurements are performed at ambient temperature of 20° C. Typically, the reaction is started by the addition of a small aliquot of H2O2 or the desired peroxidase. Time course measurements are carried out following changes in absorbance at 410 nm in 30 second intervals versus absorbance at 800 nm, where none of the compounds absorb.
We also examine the effect of methimazole on nitration catalyzed by MPO and EPO. 50 μM of salbutamol is reacted with 0.2 U/mL MPO, 5 mM NaNO2, and 2.1 mM H2O2 at pH buffer 7.0 in the presence of 0, 25, 50, and 100 μM methimazole (shown in FIG. 9, section B, traces a-d, respectively). In contrast to inhibition of nitration by LPO system, which was irreversible, inhibitory action of methimazole on MPO/H2O2/NO2^− is transitory.
The extent of nitration is expressed as a change in ΔA410 versus control (dapsone omitted) taken as 100% after 10, 30, and 60 minute reactions for LPO, MPO, and EPO nitrating systems, respectively. […]

T1 sequence (P11678 251-715 limits assumed): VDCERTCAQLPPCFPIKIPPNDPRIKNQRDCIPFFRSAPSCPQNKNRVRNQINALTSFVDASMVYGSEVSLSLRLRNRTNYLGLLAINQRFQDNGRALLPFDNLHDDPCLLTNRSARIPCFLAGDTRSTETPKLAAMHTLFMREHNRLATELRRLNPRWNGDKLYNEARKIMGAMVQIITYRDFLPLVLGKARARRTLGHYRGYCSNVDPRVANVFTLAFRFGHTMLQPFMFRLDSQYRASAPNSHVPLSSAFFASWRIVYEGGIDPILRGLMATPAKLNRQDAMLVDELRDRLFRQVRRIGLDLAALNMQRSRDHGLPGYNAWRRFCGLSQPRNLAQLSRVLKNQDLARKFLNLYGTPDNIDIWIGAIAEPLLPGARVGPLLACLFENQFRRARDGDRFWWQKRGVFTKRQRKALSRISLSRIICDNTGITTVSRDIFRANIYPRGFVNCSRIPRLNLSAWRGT
T1 sequence (P11678 140-250 limits assumed): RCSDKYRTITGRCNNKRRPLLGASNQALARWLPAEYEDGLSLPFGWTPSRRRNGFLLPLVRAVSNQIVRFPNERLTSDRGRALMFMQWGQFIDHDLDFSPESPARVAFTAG

For the compound `Nc1ccc(S(=O)(=O)c2ccc(N)cc2)cc1` [Dapsone, diamino-diphenyl sulfone], the “Nitrophenols, (%) EPO” value was 57% (dapsone 140 μM) and 34 ± 2% (dapsone 300 μM).
